From PMC11191095, “QSAR Reveals Decreased Lipophilicity of Polar Residues Determines the Selectivity of Antimicrobial Peptide Activity” (ACS Omega, 2024)
Where a SMILES comes first, the peptide text is derived from it.

Assays:
K. pneumoniae M6 = assay: microbe, parasite or virus in culture; format: cell-based, Klebsiella pneumoniae; conditions: K. pneumoniae M6 (S); shown in µM
Outline: (§1)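 Peptides 128→2 μg/mL, 2-fold series; inoculum ~5 × 10^5 CFU/mL from overnight culture (OD600 0.01, mixed 1:1). MHB non-cation-adjusted for bacteria, RPMI 1640 + 2% glucose for fungi. 37 °C, 20 h, OD600. MIC50/MIC90 at 50%/90% inhibition; n ≥ 3.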

K. pneumoniae NCTC 13368 = assay: microbe, parasite or virus in culture; format: cell-based, Klebsiella pneumoniae; conditions: K. pneumoniae NCTC 13368 (R); shown in µM
Outline: as §1

A. baumannii ATCC 17978 = assay: microbe, parasite or virus in culture; format: cell-based, Acinetobacter baumannii; conditions: A. baumannii ATCC 17978 (S); shown in µM
Outline: as §1

A. baumannii AYE = assay: microbe, parasite or virus in culture; format: cell-based, Acinetobacter baumannii; conditions: A. baumannii AYE (R); shown in µM
Outline: as §1

C. krusei NCPF 3876 = assay: microbe, parasite or virus in culture; format: cell-based; conditions: C. krusei NCPF 3876; shown in µM
Outline: as §1

C. tropicalis NCPF 8760 = assay: microbe, parasite or virus in culture; format: cell-based; conditions: C. tropicalis NCPF 8760; shown in µM
Outline: as §1

C. glabrata NCPF 8018 = assay: microbe, parasite or virus in culture; format: cell-based; conditions: C. glabrata NCPF 8018
Outline: as §1

[1] = tested on: C. parapsilosis NCPF 3209; assay: microbe, parasite or virus in culture; format: cell-based; conditions: C. parapsilosis NCPF 3209; shown in µM
Outline: as §1

C. albicans NCPF 3281 = assay: microbe, parasite or virus in culture; format: cell-based; conditions: C. albicans NCPF 3281
Outline: as §1

C. auris TDG 1912 = assay: microbe, parasite or virus in culture; format: cell-based, Candida auris; conditions: C. auris TDG 1912
Outline: as §1

P. aeruginosa NCTC 13437 = assay: microbe, parasite or virus in culture; format: cell-based, Pseudomonas aeruginosa; conditions: P. aeruginosa NCTC 13437 (R); shown in µM
Outline: as §1

P. aeruginosa PAO1 = assay: microbe, parasite or virus in culture; format: cell-based, Pseudomonas aeruginosa; conditions: P. aeruginosa PAO1 (S)
Outline: as §1

HaCat cell line = assay: In vitro HaCat cytotoxicity (MTT); format: cell-based, human; conditions: 21 h exposure, OD570, relative to untreated control
Method: The HaCat cell line (Cellonex, South Africa) was cultured in Dulbecco’s Modified Eagle Medium (DMEM) supplemented with 10% heat-inactivated fetal calf serum (FCS) and 1% antibiotic-antimycotic (Abs) and maintained at 5–10% CO2, 37 °C, 95% humidity. For cytotoxicity screening, 5.56 × 10^4 cells/mL were plated in a 96-well plate. After 24 h incubation, the cells are initially exposed to each peptide at a concentration of 256 μg/mL or 0.1% Triton-X-100 as the control for 21 h. If cytotoxicity was observed, at a level of significance of p < 0.0001 compared with the untreated control after 21 h, a dose-response assay was undertaken. Cell viability was determined by adding 10% 3-(4,5-dimethyl-2-thiazolyl)-2,5-diphenyl-2H-tetrazolium bromide (MTT) (1 mg/mL), to each well and after a further 3 h incubation the media was discarded, and the formazan crystals dissolved by adding 25% DMSO in ethanol. The absorbance was measured at OD570 by using the FLUOstar Omega multidetection microplate reader (BMG Labtech). Percentage cell viability was calculated relative to the untreated control. The LC50 was defined as the concentration of AMP treatment that results in 50% lethality of HaCat cells and was determined from the dose-response curves.

E. coli LEC001 = assay: microbe, parasite or virus in culture; format: cell-based, Escherichia coli; conditions: E. coli LEC001 (R); shown in µM
Outline: as §1

E. coli NCTC 12923 = assay: microbe, parasite or virus in culture; format: cell-based, Escherichia coli; conditions: E. coli NCTC 12923 (S); shown in µM
Outline: as §1

human erythrocytes = assay: In vitro hemolytic activity; format: cell-based; conditions: human erythrocytes in PBS, 1 h, 37 °C, OD550; from dose response curves
Method: Potential erythrocyte hemolysis was tested by incubating serial dilutions of the AMPs in PBS with freshly collected erythrocytes at a ratio of 1:1 in 96-well polypropylene V-shape plates for 1 h at 37 °C. Control wells were treated with 0.1% Triton-X-100 to ensure complete lysis or PBS-only to represent no lysis. The erythrocytes were collected by centrifugation and the OD550 of the supernatant was measured using a plate reader. The percentage hemolysis was calculated as [drawing 1] 1 where Apeptide is the absorbance value of erythrocytes exposed to a known peptide concentration, Agrowth control is the absorbance of erythrocytes exposed to 0.1% Triton-X-100 and Ablank is the absorbance of erythrocytes exposed to the PBS. The concentrations at which a peptide caused 10% (HC10) and 50% (HC50) hemolysis was determined from the dose response curves.

S. aureus (MRSA) 1199B = assay: microbe, parasite or virus in culture; format: cell-based, Staphylococcus aureus; conditions: S. aureus (MRSA) 1199B (R); shown in µM
Outline: as §1

S. aureus (MRSA) USA300 = assay: microbe, parasite or virus in culture; format: cell-based, Staphylococcus aureus; conditions: S. aureus (MRSA) USA300 (R); shown in µM
Outline: as §1

[2] = tested on: S. aureus (MRSA) NCTC 13616; assay: microbe, parasite or virus in culture; format: cell-based, Staphylococcus aureus; conditions: S. aureus (MRSA) NCTC 13616 (R); shown in µM
Outline: as §1

[3] = tested on: S. aureus (MSSA) ATCC 9144; assay: microbe, parasite or virus in culture; format: cell-based, Staphylococcus aureus; conditions: S. aureus (MSSA) ATCC 9144 (S); shown in µM
Outline: as §1

[4] = 50% growth inhibition, RPMI 1640 + 2% glucose, 37 °C, 20 h, OD600
[5] = 90% growth inhibition, RPMI 1640 + 2% glucose, 37 °C, 20 h, OD600
[6] = MHB, 37 °C, 20 h, OD600, min. three biological repeats
[7] = 50% growth inhibition, RPMI 1640 + 2% glucose, 37 °C, 20 h
[8] = 90% growth inhibition, RPMI 1640 + 2% glucose, 37 °C, 20 h

Row | Structure (SMILES) | Modal MIC (K. pneumoniae M6) [µM] | Modal MIC (K. pneumoniae NCTC 13368) [µM] | Modal MIC (A. baumannii ATCC 17978) [µM] | Modal MIC (A. baumannii AYE) [µM] | Modal MIC50 (C. krusei NCPF 3876) [µM] | Modal MIC90 (C. krusei NCPF 3876) [µM] | Modal MIC50 (C. tropicalis NCPF 8760) [µM] | Modal MIC90 (C. tropicalis NCPF 8760) [µM] | Modal MIC50 (C. glabrata NCPF 8018; shown in µM) [µM] | Modal MIC90 (C. glabrata NCPF 8018; shown in µM) [µM] | Modal MIC50 [1] [µM] | Modal MIC90 [1] [µM] | Modal MIC50 (C. albicans NCPF 3281; shown in µM) [µM] | Modal MIC90 (C. albicans NCPF 3281; shown in µM) [µM] | Modal MIC50 (C. auris TDG 1912; [4]) [µg/mL] | Modal MIC90 (C. auris TDG 1912; [5]) [µg/mL] | Modal MIC50 (C. auris TDG 1912; shown in µM) [µM] | Modal MIC90 (C. auris TDG 1912; shown in µM) [µM] | % HaCat cell death at initial screening (256μg/mL) ± SD (HaCat cell line) [%] | HC10 (concentration causing 10% hemolysis) (human erythrocytes) [µg/mL] | other results
1 | CC[C@H](C)[C@H](NC(=O)[C@H](CCCCN)NC(=O)[C@H](CCC(=O)O)NC(=O)[C@H](Cc1c[nH]c2ccccc12)NC(=O)[C@H](Cc1ccccc1)NC(=O)[C@H](CCCCN)NC(=O)CNC(=O)[C@H](CC(C)C)NC(=O)[C@H](C)N)C(=O)N[C@@H](CCCCN)C(=O)N[C@@H](CO)C(=O)N[C@@H](CC(C)C)C(=O)N[C@@H](Cc1ccccc1)C(N)=O [A1F5K8-IsCTa] (H-ALGKFWEKIKSLF-NH2) | 10 | 10 | 2.5 | 5 | 19.9 | 19.9 | 5 | 5 | 39.9 | 79.9 | 39.8 | 39.8 | 39.9 | 39.9 | > 128 | > 128 | > 79.9 | > 79.9 | 83.6 ±9.2 | 102 | Modal MIC (P. aeruginosa NCTC 13437): 39.9 µM; Modal MIC (P. aeruginosa PAO1; [6]): > 128 µg/mL; Modal MIC (P. aeruginosa PAO1; shown in µM): > 79.9 µM; Modal MIC (E. coli LEC001): 5 µM; Modal MIC (E. coli NCTC 12923): 5 µM; Modal MIC (S. aureus (MRSA) 1199B): 5 µM; Modal MIC (S. aureus (MRSA) USA300): 10 µM; Modal MIC [2]: 10 µM; Modal MIC [3]: 2.5 µM
2 | CC[C@H](C)[C@H](NC(=O)[C@H](C)NC(=O)[C@H](CCCCN)NC(=O)[C@H](CCCNC(=N)N)NC(=O)[C@@H](NC(=O)[C@H](CC(C)C)NC(=O)[C@H](CO)NC(=O)[C@H](Cc1ccccc1)NC(=O)[C@H](CC(C)C)NC(=O)[C@@H](N)Cc1ccccc1)[C@@H](C)CC)C(=O)NCC(=O)NCC(=O)N[C@@H](CC(C)C)C(=O)N[C@H](C(=O)N[C@@H](CO)C(=O)N[C@@H](C)C(=O)N[C@@H](Cc1ccccc1)C(=O)N[C@@H](CCCCN)C(=O)O)[C@@H](C)CC [A3] |  |  |  |  |  |  |  |  |  |  |  |  |  |  |  |  |  |  | 100 ± 9.7 | 9 | 
3 | CC[C@H](C)[C@H](NC(=O)[C@H](C)NC(=O)[C@H](CCCCN)NC(=O)[C@@H]1CCCN1C(=O)[C@@H](NC(=O)[C@H](CC(C)C)NC(=O)[C@H](CCCCN)NC(=O)[C@H](Cc1ccccc1)NC(=O)[C@H](CC(C)C)NC(=O)[C@@H](N)Cc1ccccc1)[C@@H](C)CC)C(=O)N[C@@H](CCCCN)C(=O)N[C@@H](CCCCN)C(=O)N[C@@H](CC(C)C)C(=O)N[C@H](C(=O)N[C@@H](CO)C(=O)N[C@@H](CCCCN)C(=O)N[C@@H](Cc1ccccc1)C(=O)N[C@@H](CCCCN)C(=O)O)[C@@H](C)CC [AamAP1-Lys] (H-FLFKLIPKAIKKLISKFK-OH) |  |  |  |  |  |  |  |  |  |  |  |  |  |  |  |  |  |  | 99.1 ± 8.7 | 94 | 
4 | CC[C@H](C)[C@H](NC(=O)[C@H](C)NC(=O)[C@H](CCCCN)NC(=O)[C@@H]1CCCN1C(=O)[C@@H](NC(=O)[C@H](CC(C)C)NC(=O)[C@H](CO)NC(=O)[C@H](Cc1ccccc1)NC(=O)[C@H](CC(C)C)NC(=O)[C@@H](N)Cc1ccccc1)[C@@H](C)CC)C(=O)NCC(=O)NCC(=O)N[C@@H](CC(C)C)C(=O)N[C@H](C(=O)N[C@@H](CO)C(=O)N[C@@H](C)C(=O)N[C@@H](Cc1ccccc1)C(=O)N[C@@H](CCCCN)C(=O)O)[C@@H](C)CC [AamAP-S1] |  |  |  |  |  |  |  |  |  |  |  |  |  |  |  |  |  |  | 85 ±17.9 | 128 | HC50 (concentration causing 50% hemolysis) (human erythrocytes): 195 µg/mL
5 | CC[C@H](C)[C@H](N)C(=O)N[C@@H](CC(C)C)C(=O)NCC(=O)N[C@@H](CCCCN)C(=O)N[C@H](C(=O)N[C@@H](Cc1c[nH]c2ccccc12)C(=O)N[C@@H](CCCCN)C(=O)N1CCC[C@H]1C(=O)N[C@H](C(=O)N[C@@H](CCCCN)C(=O)N[C@@H](CCCCN)C(=O)N[C@@H](CC(C)C)C(=O)N[C@@H](Cc1ccccc1)C(N)=O)[C@@H](C)CC)[C@@H](C)CC [K7P8K11-IsCTa] (H-ILGKIWKPIKKLF-NH2) | 19.8 | 39.5 | 4.9 | 4.9 | 19.8 | 39.5 | 4.9 | 9.9 | > 79 | > 79 | 39.5 | 79 | > 79 | > 79 | > 128 | > 128 | > 79 | > 79 | 89.2 ± 9.1 |  | Modal MIC50 (C. glabrata NCPF 8018; [7]): > 128 µg/mL; Modal MIC90 (C. glabrata NCPF 8018; [8]): > 128 µg/mL; Modal MIC50 (C. albicans NCPF 3281; [7]): > 128 µg/mL; Modal MIC90 (C. albicans NCPF 3281; [8]): > 128 µg/mL; Modal MIC (P. aeruginosa NCTC 13437): 39.5 µM; Modal MIC (P. aeruginosa PAO1; [6]): > 128 µg/mL; Modal MIC (P. aeruginosa PAO1; shown in µM): > 79 µM; Modal MIC (E. coli LEC001): 39.5 µM; Modal MIC (E. coli NCTC 12923): 9.9 µM; Modal MIC (S. aureus (MRSA) 1199B): 19.8 µM; Modal MIC (S. aureus (MRSA) USA300): 39.5 µM; Modal MIC [2]: 39.5 µM; Modal MIC [3]: 4.9 µM
